This passage reports residual activity results from ChEMBL document CHEMBL5649166, “RIP3 induces apoptosis independent of pronecrotic kinase activity” (Mol Cell, 2014).

Molecules are shown by their SMILES.

Assay [1] has as its target Ribosomal protein S6 kinase alpha-4 (Homo sapiens) (UniProt O75676). Briefly: Inhibition of human MSK2/RPS6KA4 using GRPRTSSFAEG as substrate at 1 uM in presence of 32P-ATP by Hotspot assay relative to control; values are per cent of control.
In assay [2] the target is Serine/threonine-protein kinase Nek4 (Homo sapiens) (UniProt P51957). Nature of the assay: Inhibition of human NEK4 using myelin basic protein as substrate at 1 uM in presence of 32P-ATP by Hotspot assay relative to control; values are per cent of control.
Serine/threonine-protein kinase Nek4 (Homo sapiens), sequence (P51957 whole entry, looked up): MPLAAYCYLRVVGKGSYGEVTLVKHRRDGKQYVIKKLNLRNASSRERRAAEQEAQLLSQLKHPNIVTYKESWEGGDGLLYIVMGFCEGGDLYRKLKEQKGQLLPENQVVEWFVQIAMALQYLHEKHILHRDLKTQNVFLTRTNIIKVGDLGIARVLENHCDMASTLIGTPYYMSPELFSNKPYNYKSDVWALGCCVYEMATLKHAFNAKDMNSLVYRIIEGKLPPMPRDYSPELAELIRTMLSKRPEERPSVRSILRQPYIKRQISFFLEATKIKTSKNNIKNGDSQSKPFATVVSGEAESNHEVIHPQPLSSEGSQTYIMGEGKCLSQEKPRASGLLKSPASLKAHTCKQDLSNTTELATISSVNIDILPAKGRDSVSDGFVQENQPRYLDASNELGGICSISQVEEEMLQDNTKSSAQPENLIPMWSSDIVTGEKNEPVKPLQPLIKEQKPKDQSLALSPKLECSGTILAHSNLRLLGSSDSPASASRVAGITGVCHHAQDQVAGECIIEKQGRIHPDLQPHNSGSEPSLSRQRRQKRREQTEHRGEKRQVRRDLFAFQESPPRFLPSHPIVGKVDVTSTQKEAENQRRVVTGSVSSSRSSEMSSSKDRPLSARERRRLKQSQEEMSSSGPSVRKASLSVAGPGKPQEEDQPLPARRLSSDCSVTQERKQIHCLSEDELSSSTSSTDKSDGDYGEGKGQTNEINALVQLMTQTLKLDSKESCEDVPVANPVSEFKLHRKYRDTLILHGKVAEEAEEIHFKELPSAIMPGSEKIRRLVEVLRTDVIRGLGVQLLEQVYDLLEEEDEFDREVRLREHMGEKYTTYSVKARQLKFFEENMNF
In assay [3] the target is Tyrosine-protein kinase Lck (Homo sapiens) (UniProt P06239). Briefly: Inhibition of human LCK using poly[Glu:Tyr] (4:1) as substrate at 1 uM in presence of 32P-ATP by Hotspot assay relative to control; values are per cent of control.
Tyrosine-protein kinase Lck (Homo sapiens), sequence (P06239 2-509 limits assumed): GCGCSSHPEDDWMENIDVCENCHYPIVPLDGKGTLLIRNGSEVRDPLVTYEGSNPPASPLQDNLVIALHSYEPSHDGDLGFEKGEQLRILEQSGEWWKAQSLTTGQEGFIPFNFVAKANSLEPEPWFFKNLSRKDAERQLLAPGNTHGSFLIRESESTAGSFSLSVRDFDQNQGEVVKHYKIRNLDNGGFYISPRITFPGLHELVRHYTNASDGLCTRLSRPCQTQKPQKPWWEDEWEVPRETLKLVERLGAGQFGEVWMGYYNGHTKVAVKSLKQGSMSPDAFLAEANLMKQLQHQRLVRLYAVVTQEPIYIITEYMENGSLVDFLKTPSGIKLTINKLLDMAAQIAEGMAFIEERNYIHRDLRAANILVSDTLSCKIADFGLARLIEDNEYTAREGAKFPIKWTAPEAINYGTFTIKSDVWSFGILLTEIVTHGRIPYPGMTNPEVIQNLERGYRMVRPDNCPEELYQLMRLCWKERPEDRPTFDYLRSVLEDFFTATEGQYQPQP
In assay [4] the target is Ephrin type-A receptor 4 (Homo sapiens) (UniProt P54764). Briefly: Inhibition of human EPHA4 using poly[Glu:Tyr] (4:1) as substrate at 1 uM in presence of 32P-ATP by Hotspot assay relative to control; values are per cent of control.
Ephrin type-A receptor 4 (Homo sapiens), sequence (P54764 whole entry): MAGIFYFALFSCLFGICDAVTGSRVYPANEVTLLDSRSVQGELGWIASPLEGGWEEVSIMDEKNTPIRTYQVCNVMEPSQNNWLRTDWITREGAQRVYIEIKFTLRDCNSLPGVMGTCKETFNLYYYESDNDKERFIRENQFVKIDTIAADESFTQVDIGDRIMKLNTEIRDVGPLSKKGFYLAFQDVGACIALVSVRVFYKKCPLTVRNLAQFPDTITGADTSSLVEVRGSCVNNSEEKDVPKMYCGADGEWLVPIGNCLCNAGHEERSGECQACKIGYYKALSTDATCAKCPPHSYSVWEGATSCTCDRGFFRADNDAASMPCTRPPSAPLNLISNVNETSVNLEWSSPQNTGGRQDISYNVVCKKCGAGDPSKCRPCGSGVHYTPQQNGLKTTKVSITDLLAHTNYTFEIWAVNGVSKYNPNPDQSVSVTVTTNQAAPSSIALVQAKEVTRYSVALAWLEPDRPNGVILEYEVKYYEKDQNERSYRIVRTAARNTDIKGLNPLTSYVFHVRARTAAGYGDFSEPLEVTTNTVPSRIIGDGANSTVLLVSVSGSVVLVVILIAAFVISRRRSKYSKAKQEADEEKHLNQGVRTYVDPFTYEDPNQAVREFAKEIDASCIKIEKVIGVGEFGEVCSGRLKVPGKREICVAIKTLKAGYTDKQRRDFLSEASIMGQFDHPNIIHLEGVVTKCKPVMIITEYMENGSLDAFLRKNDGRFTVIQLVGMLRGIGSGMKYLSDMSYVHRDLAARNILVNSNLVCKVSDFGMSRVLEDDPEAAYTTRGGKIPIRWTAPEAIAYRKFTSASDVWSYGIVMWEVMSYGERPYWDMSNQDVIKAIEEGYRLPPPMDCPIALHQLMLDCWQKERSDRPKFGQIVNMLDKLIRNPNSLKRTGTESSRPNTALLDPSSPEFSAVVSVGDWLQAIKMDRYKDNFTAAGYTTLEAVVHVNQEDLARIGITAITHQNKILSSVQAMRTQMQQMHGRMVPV
In assay [5] the target is TGF-beta receptor type-2 (Homo sapiens) (UniProt P37173). Briefly: Inhibition of human TGFBR2 using myelin basic protein as substrate at 1 uM in presence of 32P-ATP by Hotspot assay relative to control; values are per cent of control.
Assay [6] deals with Tyrosine-protein kinase Yes (Homo sapiens) (UniProt P07947). Nature of the assay: Inhibition of human YES/YES1 using poly[Glu:Tyr] (4:1) as substrate at 1 uM in presence of 32P-ATP by Hotspot assay relative to control; values are per cent of control.
Tyrosine-protein kinase Yes (Homo sapiens), sequence (P07947 2-543 limits assumed): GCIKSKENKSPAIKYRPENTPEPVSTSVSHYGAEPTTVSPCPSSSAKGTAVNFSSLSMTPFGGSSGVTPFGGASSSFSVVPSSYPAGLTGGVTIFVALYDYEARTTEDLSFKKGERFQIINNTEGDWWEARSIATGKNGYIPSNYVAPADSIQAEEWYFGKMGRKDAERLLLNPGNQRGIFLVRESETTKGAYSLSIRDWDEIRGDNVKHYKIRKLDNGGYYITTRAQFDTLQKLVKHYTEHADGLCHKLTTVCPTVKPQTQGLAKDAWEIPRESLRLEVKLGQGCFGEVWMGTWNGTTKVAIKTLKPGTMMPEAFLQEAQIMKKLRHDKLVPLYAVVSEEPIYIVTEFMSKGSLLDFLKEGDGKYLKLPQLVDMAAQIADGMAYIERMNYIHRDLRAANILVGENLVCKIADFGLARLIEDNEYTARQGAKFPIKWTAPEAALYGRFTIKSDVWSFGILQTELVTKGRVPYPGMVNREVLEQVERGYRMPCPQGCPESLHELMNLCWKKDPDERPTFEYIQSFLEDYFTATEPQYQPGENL
The target in assay [7] is T1, Dual specificity mitogen-activated protein kinase kinase 6 (Homo sapiens) (UniProt P52564).
T1 sequence (whole entry): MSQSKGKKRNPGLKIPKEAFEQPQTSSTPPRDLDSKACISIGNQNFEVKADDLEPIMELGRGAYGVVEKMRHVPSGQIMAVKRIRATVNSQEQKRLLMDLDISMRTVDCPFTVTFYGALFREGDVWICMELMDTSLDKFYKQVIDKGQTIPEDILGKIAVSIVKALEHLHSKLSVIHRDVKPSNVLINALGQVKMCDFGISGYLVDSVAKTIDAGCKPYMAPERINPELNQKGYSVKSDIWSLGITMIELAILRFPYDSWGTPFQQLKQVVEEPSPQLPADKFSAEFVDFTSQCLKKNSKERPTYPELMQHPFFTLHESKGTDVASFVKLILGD
Nature of the assay: Inhibition of human MKK6 using p38a (K53A) as substrate at 1 uM in presence of 32P-ATP by Hotspot assay relative to control; values are per cent of control.

Assay [8] concerns the target Calcium/calmodulin-dependent protein kinase type II subunit alpha (Homo sapiens) (UniProt Q9UQM7). Briefly: Inhibition of human CAMK2a using KKALRRQETVDAL as substrate at 1 uM in presence of 32P-ATP by Hotspot assay relative to control; values are per cent of control.
Assay [9] concerns the target T2, Serine/threonine-protein kinase Nek3 (Homo sapiens) (UniProt P51956).
T2 sequence (whole entry): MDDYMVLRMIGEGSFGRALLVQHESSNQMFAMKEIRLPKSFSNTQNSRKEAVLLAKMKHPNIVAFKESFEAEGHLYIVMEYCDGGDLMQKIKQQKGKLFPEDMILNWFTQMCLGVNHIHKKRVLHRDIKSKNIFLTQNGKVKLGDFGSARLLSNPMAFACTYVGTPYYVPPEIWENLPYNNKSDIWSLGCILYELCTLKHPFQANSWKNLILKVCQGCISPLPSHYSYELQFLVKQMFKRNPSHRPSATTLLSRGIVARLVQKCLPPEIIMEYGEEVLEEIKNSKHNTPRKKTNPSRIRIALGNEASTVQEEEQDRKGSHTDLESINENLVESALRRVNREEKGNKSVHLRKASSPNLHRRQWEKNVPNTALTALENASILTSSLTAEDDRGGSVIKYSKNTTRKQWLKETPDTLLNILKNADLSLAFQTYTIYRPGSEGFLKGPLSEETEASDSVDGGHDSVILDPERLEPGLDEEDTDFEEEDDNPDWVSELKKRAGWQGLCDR
Briefly: Residual activity of human NEK3 using myelin basic protein as substrate at 1 uM in presence of 32P-ATP by Hotspot assay relative to control.

In assay [10] the target is Death-associated protein kinase 1 (Homo sapiens) (UniProt P53355). Nature of the assay: Inhibition of human DAPK1 using KKLNRTLSFAEPG as substrate at 1 uM in presence of 32P-ATP by Hotspot assay relative to control; values are per cent of control.
Death-associated protein kinase 1 (Homo sapiens), sequence (P53355 whole entry, looked up): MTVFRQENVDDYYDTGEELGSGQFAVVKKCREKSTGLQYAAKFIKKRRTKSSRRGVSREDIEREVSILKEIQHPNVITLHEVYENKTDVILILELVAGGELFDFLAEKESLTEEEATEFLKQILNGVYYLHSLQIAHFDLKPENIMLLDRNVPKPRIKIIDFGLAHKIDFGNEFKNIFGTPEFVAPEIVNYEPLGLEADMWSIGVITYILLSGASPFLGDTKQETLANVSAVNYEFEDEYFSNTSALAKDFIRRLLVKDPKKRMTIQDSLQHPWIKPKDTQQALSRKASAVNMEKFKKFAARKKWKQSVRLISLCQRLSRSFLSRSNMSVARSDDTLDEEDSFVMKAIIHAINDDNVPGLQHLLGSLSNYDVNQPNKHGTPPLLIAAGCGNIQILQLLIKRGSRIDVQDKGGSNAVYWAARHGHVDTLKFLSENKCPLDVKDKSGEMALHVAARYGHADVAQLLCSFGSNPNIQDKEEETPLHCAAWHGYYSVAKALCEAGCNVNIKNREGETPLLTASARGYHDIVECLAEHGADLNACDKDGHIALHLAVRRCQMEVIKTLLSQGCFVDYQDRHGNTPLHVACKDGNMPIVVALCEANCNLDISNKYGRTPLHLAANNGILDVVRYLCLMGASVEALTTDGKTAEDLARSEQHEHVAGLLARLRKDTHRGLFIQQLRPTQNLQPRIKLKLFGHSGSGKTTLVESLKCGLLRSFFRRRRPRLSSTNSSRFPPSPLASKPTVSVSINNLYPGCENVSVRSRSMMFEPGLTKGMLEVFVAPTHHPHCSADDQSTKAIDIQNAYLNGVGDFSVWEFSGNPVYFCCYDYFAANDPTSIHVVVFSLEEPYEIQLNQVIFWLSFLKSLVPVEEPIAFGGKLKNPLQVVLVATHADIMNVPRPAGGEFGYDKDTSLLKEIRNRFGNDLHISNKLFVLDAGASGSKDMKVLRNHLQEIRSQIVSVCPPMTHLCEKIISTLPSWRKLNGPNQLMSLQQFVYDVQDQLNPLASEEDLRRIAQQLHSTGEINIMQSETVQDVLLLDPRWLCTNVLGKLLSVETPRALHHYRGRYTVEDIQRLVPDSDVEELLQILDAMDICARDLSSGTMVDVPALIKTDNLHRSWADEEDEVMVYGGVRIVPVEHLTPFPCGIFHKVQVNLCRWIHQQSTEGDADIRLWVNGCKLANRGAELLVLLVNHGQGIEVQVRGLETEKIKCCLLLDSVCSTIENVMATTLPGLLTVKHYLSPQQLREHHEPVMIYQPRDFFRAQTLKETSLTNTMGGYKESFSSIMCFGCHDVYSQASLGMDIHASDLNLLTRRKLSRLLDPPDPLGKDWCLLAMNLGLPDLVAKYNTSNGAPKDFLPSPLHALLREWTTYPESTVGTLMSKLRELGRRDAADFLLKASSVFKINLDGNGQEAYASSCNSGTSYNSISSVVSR
Assay [11] concerns the target Cyclin-dependent kinase 5/CDK5 activator 1 (Homo sapiens) (UniProt Q00535+Q15078). Briefly: Inhibition of human CDK5/p35 using RB Protein as substrate at 1 uM in presence of 32P-ATP by Hotspot assay relative to control; values are per cent of control.
In assay [12] the target is T3, G protein-coupled receptor kinase 3 (Homo sapiens) (UniProt P35626).
T3 sequence (whole entry): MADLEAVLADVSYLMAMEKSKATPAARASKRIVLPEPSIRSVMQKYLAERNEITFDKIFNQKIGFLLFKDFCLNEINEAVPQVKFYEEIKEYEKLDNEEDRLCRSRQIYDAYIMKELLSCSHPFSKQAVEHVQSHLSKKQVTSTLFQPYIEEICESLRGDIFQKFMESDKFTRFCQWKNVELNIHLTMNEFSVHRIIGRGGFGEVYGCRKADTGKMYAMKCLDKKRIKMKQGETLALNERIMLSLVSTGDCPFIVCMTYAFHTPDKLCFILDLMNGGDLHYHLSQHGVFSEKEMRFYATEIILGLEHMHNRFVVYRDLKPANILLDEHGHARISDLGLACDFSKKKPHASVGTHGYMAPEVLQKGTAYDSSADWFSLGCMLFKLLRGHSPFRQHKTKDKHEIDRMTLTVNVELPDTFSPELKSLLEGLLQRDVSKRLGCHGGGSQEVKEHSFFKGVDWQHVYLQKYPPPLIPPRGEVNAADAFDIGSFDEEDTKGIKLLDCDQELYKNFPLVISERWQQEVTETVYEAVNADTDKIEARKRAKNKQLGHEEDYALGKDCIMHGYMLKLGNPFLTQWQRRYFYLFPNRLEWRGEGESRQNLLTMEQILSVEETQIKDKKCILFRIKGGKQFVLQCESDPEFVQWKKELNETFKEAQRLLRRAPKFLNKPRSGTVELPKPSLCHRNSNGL
Nature of the assay: Inhibition of human GRK3 using casein as substrate at 1 uM in presence of 32P-ATP by Hotspot assay relative to control; values are per cent of control.

Cyclin-dependent kinase 5/CDK5 activator 1 (Homo sapiens), sequence (Q00535 whole entry): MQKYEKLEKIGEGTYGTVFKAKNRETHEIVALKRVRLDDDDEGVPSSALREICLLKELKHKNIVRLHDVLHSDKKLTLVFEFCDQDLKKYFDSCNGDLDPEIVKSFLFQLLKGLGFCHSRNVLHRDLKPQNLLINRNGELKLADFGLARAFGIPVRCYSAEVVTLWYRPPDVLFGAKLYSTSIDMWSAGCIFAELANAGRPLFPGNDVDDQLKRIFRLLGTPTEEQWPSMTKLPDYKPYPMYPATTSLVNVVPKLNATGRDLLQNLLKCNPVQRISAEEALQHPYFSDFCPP
Cyclin-dependent kinase 5/CDK5 activator 1 (Homo sapiens), sequence (Q15078 99-307 partner limits assumed): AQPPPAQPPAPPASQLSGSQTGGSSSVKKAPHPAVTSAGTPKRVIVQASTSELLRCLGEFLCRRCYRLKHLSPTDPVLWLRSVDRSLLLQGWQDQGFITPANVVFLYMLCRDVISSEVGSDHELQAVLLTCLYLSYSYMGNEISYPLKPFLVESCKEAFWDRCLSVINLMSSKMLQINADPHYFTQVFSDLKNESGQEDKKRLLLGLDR

Regarding `Cc1cc(-c2cnc(N)c3c(-c4ccc5scnc5c4)csc23)n(C)n1`, the residual activity in assay [1] worked out at 99.3%; in [2] it was 97.9%; in [3], 17.3%; in assay [4], 48.9%; in assay [5], 35.2%; in [6] it was 17%. In addition, the residual activity is 92.9% in assay [7]; 104% in assay [8]; 99.7% in assay [9]; 95.3% in assay [10]; 97.8% in [11]; 80.9% in assay [12].

Take `CC(C)S(=O)(=O)c1ccc2nccc(Nc3ccc4scnc4c3)c2c1`: the residual activity in assay [1] is 95.4%; in [2] it was 95.6%; in [3], 39.4%; in assay [4], 70.9%; in assay [5], 101%; in assay [6], 20.1%. Besides, the residual activity in assay [7] is 91.3%; in assay [8], 100%; in assay [9] it was 92%; in assay [10], 97%; in assay [11] it was 98.7%; in [12] it was 99.5%.

For `CNC(=O)c1ccc2c(c1)ncn2-c1ccc(CC(=O)OC(C)(C)C)cc1`, the residual activity in [1] was found to be 96.9%; in [2], 96.3%; in assay [3], 13.1%; in assay [4] it was 95.5%; in assay [5], 73.3%; in assay [6], 39.6%. Besides, the residual activity was 98.5% in assay [7]; 94.7% in [8]; 91.3% in [9]; 91.6% in assay [10]; 97.1% in assay [11]; 108% in assay [12].
